Test results as given in patent US20030073872A1, “Hexameric complexes and their preparation” (priority 2001, published 2003).

Assay: NMR check of guest exchange in a sealed tube heated to 150° C.
Format: physicochemical
Details: sealed NMR tube heated to 150° C., about 1.4 atmospheres, d^6-acetone
Description: Nuclear magnetic resonance (NMR) spectroscopic investigations were carried out to verify the existence of the spheroidal hexamer in solution. […] FIG. […] The enlarged inset in FIG. 3 is the region of the spectrum displaying the methanol resonances. The peak assignments a, b, and c in the enlarged inset are for diaryl C—H, CH3 of the methanol guest, and CH3 of the methanol in the bulk solvent, respectively. Peak assignments d, e, and f are for the CH2 moiety adjacent to CH in the bridging group, the remaining CH2 groups, and the terminal CH3 group, respectively, on the R substituent. Peak g is the TMS internal standard.
The most significant features in the spectrum of FIG. 3 are the two methanol peaks, b and c, indicating, respectively, the methanol trapped within the hexameric spheroidal assembly and the methanol in the bulk solvent. Similar work was carried out in d^6-acetone, d^6-dimethyl sulfoxide, and d^8-toluene.

C-tridecylpyrogallol(4)arene
stability of guest/host assembly (methanol guest does not exchange with bulk solvent): stable
